The values below come from patent US20130030001A1 (priority 2008, published 2013).

The term IC50 denotes the concentration that inhibits the measured activity by half. High values mean a need for much substance, low ones inhibition by little substance. As usually defined, the fraction unbound is the share of the substance not bound to proteins or other matrix.

Series [1] deals with T1, human muscarinic acetylcholine M3 receptor (Homo sapiens, UniProt P20309).
T1 construct: expressed in transfected cells; host or cells: CHO-K1 (Chinese Hamster Ovary) cell membranes
T1 sequence (P20309 whole entry): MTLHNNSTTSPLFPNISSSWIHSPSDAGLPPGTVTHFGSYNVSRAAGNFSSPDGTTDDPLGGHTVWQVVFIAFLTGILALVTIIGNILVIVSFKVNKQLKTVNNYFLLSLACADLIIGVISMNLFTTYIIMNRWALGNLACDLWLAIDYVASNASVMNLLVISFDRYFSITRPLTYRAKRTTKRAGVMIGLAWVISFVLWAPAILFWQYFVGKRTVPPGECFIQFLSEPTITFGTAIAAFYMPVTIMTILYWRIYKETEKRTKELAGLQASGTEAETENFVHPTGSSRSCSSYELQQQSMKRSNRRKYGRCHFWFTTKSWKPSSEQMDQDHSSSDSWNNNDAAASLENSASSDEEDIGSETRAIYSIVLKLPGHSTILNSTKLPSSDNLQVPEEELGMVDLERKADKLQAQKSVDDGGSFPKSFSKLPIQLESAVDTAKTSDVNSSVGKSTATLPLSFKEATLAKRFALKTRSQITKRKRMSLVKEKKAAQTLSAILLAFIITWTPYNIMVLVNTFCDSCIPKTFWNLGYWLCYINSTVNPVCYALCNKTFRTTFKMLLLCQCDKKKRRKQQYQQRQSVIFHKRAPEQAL
As to the kind of experiment: biochemical. Type of series: binding.

The nature of the next series: in vitro. The settings on record: human, plasma, pH 7.4.

Where a name gives a salt, the structure may show the parent alone. Some results are limits rather than exact numbers.

The molecule `O=C(C[N+]12CCC(CC1)[C@@H](OC(=O)C1(c3ccccc3)CCCCCC1)C2)Nc1ccccc1` [Example 21, (R)-1-Phenylcarbamoylmethyl-3-(1-phenyl-cycloheptanecarbonyloxy)-1-azonia-bicyclo[2.2.2]octane bromide] yielded an IC50 in series [1] (M3 binding IC50) of under 2 nM. Besides, the unbound share (fraction unbound) in the series “in vitro” is 0.006.
`O=C(C[N+]12CCC(CC1)[C@@H](OC(=O)C1(c3cccs3)CCCCCC1)C2)Nc1cnccn1` [Example 11, (R)-1-(Pyrazin-2-ylcarbamoylmethyl)-3-(1-thiophen-2-yl-cycloheptanecarbonyloxy)-1-azonia-bicyclo[2.2.2]octane bromide] registered an IC50 in series [1] (M3 binding IC50) of under 2 nM. Besides, in “in vitro”, the free fraction (fraction unbound) is 0.048.
`Cc1cc(NC(=O)C[N+]23CCC(CC2)[C@@H](OC(=O)C2(c4ccccc4)CCCCCC2)C3)ccn1` [Example 20, (R)-1-[(2-Methyl-pyridin-4-ylcarbamoyl)-methyl]-3-(1-phenyl-cycloheptanecarbonyloxy)-1-azonia-bicyclo[2.2.2]octane chloride] gave a fraction unbound in the series “in vitro” of 0.018.
In the case of `O=C(C[N+]12CCC(CC1)[C@@H](OC(=O)C1(c3ccccc3)CCCCCC1)C2)Nc1ccccn1` [Example 15, (R)-3-(1-Phenyl-cycloheptanecarbonyloxy)-1-(pyridin-2-ylcarbamoylmethyl)-1-azonia-bicyclo[2.2.2]octane bromide], in the series “in vitro”, the fraction unbound was 0.039.
`O=C(C[N+]12CCC(CC1)[C@@H](OC(=O)C1(c3ccccc3)CCCCCC1)C2)Nc1ccc(F)cn1` [Example 17, (R)-1-[(5-Fluoro-pyridin-2-ylcarbamoyl)-methyl]-3-(1-phenyl-cycloheptanecarbonyloxy)-1-azonia-bicyclo[2.2.2]octane chloride]: the fraction unbound in the series “in vitro” is 0.024.
For the molecule `O=C(C[N+]12CCC(CC1)[C@@H](OC(=O)C1(c3ccccc3)CCCCCC1)C2)Nc1noc2ccccc12` [Example 4, (R)-1-(Benzo[d]isoxazol-3-ylcarbamoylmethyl)-3-(1-phenyl-cycloheptanecarbonyloxy)-1-azonia-bicyclo[2.2.2]octane chloride], in series [1] (M3 binding IC50), the IC50 was under 2 nM.
Turning to `O=C(C[N+]12CCC(CC1)[C@@H](OC(=O)C1(c3cccc(F)c3)CCCCCC1)C2)Nc1ccon1` [Example 13, (R)-3-[1-(3-Fluoro-phenyl)-cycloheptanecarbonyloxy]-1-(isoxazol-3-ylcarbamoylmethyl)-1-azonia-bicyclo[2.2.2]octane bromide], in series [1] (pIC50), the IC50 was 0.0794 nM. For the same molecule, the fraction unbound in “in vitro” was 0.068.
As for `Cc1ccc(NC(=O)C[N+]23CCC(CC2)[C@@H](OC(=O)C2(c4ccccc4)CCCCCC2)C3)cn1` [Example 1, (R)-1-[(6-Methyl-pyridin-3-ylcarbamoyl)-methyl]-3-(1-phenyl-cycloheptanecarbonyloxy)-1-azonia-bicyclo[2.2.2]octane chloride], the IC50 in series [1] (M3 binding IC50) was under 2 nM; in series [1] (pIC50), 0.794 nM.
For `Cc1cc(NC(=O)C[N+]23CCC(CC2)[C@@H](OC(=O)C2(c4cccs4)CCCCCC2)C3)no1` [Example 6, (R)-1-[(5-Methyl-isoxazol-3-ylcarbamoyl)-methyl]-3-(1-thiophen-2-yl-cycloheptanecarbonyloxy)-1-azonia-bicyclo[2.2.2]octane bromide], the IC50 in series [1] (M3 binding IC50) is under 2 nM.
For the molecule `N#Cc1ccc(OCCC[N+]23CCC(CC2)[C@@H](OC(=O)C2(c4ccccc4)CCCCCC2)C3)cc1` [Example 40, (R)-1-[3-(4-Cyano-phenoxy)-propyl]-3-(1-phenyl-cycloheptanecarbonyloxy)-1-azonia-bicyclo[2.2.2]octane bromide], in series [1] (M3 binding IC50), the IC50 is under 2 nM.
The molecule `O=C(O[C@@H]1C[N+]2(CCCOc3ccccc3)CCC1CC2)C1(c2ccccc2)CCCCCC1` [Example 33, (S)-1-(3-Phenoxy-propyl)-3-(1-phenyl-cycloheptanecarbonyloxy)-1-azonia-bicyclo[2.2.2]octane formate] had an IC50 in series [1] (M3 binding IC50) of 2 to 10 nM.
On to `O=C(C[N+]12CCC(CC1)[C@@H](OC(=O)C1(c3ccccc3)CCCCCC1)C2)Nc1ncco1` [Example 48, (R)-1-(Oxazol-2-ylcarbamoylmethyl)-3-(1-phenyl-cycloheptanecarbonyloxy)-1-azonia-bicyclo[2.2.2]octane bromide], for which the concentration for half-maximal inhibition (IC50) in series [1] (M3 binding IC50) lay in the range of 2 to 10 nM.
Still for that read-out and setting: then `O=C(C[N+]12CCC(CC1)[C@@H](OC(=O)C1(c3ccccc3)CCCCCC1)C2)NCCOc1cccc(F)c1` [Example 34, (R)-1-{[2-(3-Fluoro-phenoxy)-ethylcarbamoyl]-methyl}-3-(1-phenyl-cycloheptanecarbonyloxy)-1-azonia-bicyclo[2.2.2]octane bromide], with 2 to 10 nM.
On the same count and under the same terms, for `O=C(C[N+]12CCC(CC1)[C@@H](OC(=O)C1(c3ccccc3)CCCCCC1)C2)Nc1ccc(Cl)cn1` [Example 45, (R)-1-[(5-Chloro-pyridin-2-ylcarbamoyl)-methyl]-3-(1-phenyl-cycloheptanecarbonyloxy)-1-azonia-bicyclo[2.2.2]octane chloride] the value was under 2 nM; for `COc1ccc(COCC[N+]23CCC(CC2)[C@@H](OC(=O)C2(c4ccccc4)CCCCCC2)C3)cc1` [Example 36, (R)-1-[2-(4-methoxy-benzyloxy)-ethyl]-3-(1-phenyl-cycloheptanecarbonyloxy)-1-azonia-bicyclo[2.2.2]octane formate], 2 to 10 nM.
